These results are taken from publication PMC4922860, “Atypical calcium regulation of the PKD2-L1 polycystin ion channel” (eLife, 2016).

Numbering of substitutions follows the chain as printed.

Holding throughout (format): cell-based
Assay [1] concerns the target T1, human PKD2-L1, homomeric channel (Homo sapiens, UniProt Q9P0L9, D523N).
T1 construct: gene PKD2L1; full-length isoform 1 in pTracer CMV2, transiently transfected HEK 293T cells; homotetramer; whole-cell patch clamp
T1 sequence (Q9P0L9 1-805 D523N): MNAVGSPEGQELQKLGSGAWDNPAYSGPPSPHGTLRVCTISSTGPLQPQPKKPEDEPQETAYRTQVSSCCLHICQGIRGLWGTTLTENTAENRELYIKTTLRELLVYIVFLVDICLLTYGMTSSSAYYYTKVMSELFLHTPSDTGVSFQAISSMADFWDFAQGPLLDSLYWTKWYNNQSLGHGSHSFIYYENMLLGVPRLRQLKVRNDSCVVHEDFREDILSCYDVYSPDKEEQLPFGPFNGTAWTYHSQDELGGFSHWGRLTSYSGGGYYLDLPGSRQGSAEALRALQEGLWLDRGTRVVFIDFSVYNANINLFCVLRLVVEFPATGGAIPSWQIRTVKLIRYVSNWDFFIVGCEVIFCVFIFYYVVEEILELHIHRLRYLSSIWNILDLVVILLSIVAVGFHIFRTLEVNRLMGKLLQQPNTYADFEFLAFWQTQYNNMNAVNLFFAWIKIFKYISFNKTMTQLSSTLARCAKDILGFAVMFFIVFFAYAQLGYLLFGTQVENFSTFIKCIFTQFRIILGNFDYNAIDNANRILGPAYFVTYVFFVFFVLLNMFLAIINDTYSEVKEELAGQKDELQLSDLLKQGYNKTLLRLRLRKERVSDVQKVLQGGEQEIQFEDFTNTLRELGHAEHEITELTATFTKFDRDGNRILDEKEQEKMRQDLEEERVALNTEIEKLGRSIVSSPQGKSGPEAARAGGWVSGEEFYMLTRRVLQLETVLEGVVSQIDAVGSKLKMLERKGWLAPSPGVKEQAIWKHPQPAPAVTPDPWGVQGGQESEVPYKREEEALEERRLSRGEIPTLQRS
Nature of the assay: whole-cell patch clamp, current potentiation, voltage ramps. Background: In patch-clamp work, channel activity is measured electrically.

Assay [2] concerns the target T2, human PKD2-L1 (Wt), homomeric channel (Homo sapiens, UniProt Q9P0L9).
T2 construct: gene PKD2L1; full-length isoform 1 in pTracer CMV2, transiently transfected HEK 293T cells; homotetramer; whole-cell patch clamp
T2 sequence (Q9P0L9 1-805): T1 sequence (Q9P0L9 1-805 D523N) with N523D
The assay is described as above.

The target in assay [3] is T2, human PKD2-L1 (Wt), homomeric channel. As to the kind of experiment: whole-cell patch clamp, current block, voltage ramps, Hill fit.
In assay [4] the target is T1, human PKD2-L1, homomeric channel. The assay is described as above.

Turning to `Clc1ccc(C(c2ccc(Cl)cc2)n2cc[n+](CC(OCc3ccc(Cl)cc3Cl)c3ccc(Cl)cc3Cl)c2)cc1` (stereo not shown) [calmidazolium], the EC50 – broadly, the concentration at which the effect is half-maximal – in assay [1] was determined as 9 ± 7 µM; in assay [2], 2.6 ± 6 µM.

For the compound `CCCCOc1cc(C(=O)NCCN(CC)CC)c2ccccc2n1` [dibucaine], the IC50 – broadly, the concentration that gives 50% inhibition – was 31 ± 5 µM in assay [3] and 23 ± 3 µM in assay [4].
